Measurements as given in article PMC4180036 (Clinical pharmacology and therapeutics, 2014).
Several values for one entry are separate records, joined by “and”; a condition that tells them apart may be missing. Identical values can stand only once. Like-named read-outs stand apart in the source and are kept apart here.

Tests used:
[1] = Population pharmacokinetic modeling and covariate analysis; format: in vivo, human; details: for IIV V1, inter-individual variability on volume of distribution / IIVCL, inter-individual variability on clearance / IOV CL, inter-occasion variability on clearance: expressed as variance; for θKa, first-order absorption rate constant: fixed value; for clearance / Vd: human, plasma, oral; for Vd: θV1, volume of distribution
[2] = in vivo
[3] = system: African Americans with NSCLC; assay: Treatment-related toxicities; format: in vivo, human; details: for Dermatologic, other than rash: Any, grade 1–3: erythema, hyperpigmentation, pruritus, xerodermia; for Nausea, grade 1–3: only one grade three nausea was recorded
NSCLC = assay: Efficacy: disease control rate at 3 months; format: in vivo, human
[4] = other studies; cited from earlier work
NSCLC patients = details: 150 mg erlotinib, cited from earlier work
clinical = details: human, in vivo
[5] = Base model (n=26), Bootstrap median (95% CI)
[6] = Base model (n=26), Estimate (CV %)
[7] = Covariate model (LBM, n=26), Bootstrap median (95% CI)
[8] = Covariate model (LBM, n=26), Estimate (CV %)

C#Cc1cccc(Nc2ncnc3cc(OCCOC)c(OCCO)cc23)c1 [OSI-420]
θCLM, metabolite clearance [1, 5]: 23.60 (4.76, 47.91) L/h
θV2, metabolite volume of distribution [1, 5]: 7.67 (0.09, 21.91) L
θCLM, metabolite clearance [1, 6]: 21.5 (8.9) L/h
θV2, metabolite volume of distribution [1, 6]: 7.18 (62.8) L
θCLM, metabolite clearance [1, 7]: 27.80 (4.04, 55.60) L/h
θV2, metabolite volume of distribution [1, 7]: 8.99 (0.04, 26.11) L
θCLM, metabolite clearance [1, 8]: 32.6 (10.4) L/h
θV2, metabolite volume of distribution [1, 8]: 11.6 (12.1) L
OSI-420 detection in plasma [2]: ƛ OSI-420 was undetectable in one patient treated on Arm B
measurable OSI-420 in plasma [2]: no measureable OSI-420

C#Cc1cccc(Nc2ncnc3cc(OCCOC)c(OCCOC)cc23)c1 [erlotinib]
AST elevation ([3]; All, n=55): 4 (7) no. of pts (%)
Anorexia, grade 1–2 ([3]; All, n=55): 14 (25) no. of pts (%)
Anorexia, grade 3 ([3]; All, n=55): 3 (5) no. of pts (%)
Any grade 3+ toxicity ([3]; All, n=55): 11 (20) no. of pts (%)
Any grade 4/5 toxicity ([3]; All, n=55): 1 (2) no. of pts (%)
Dehydration, grade 1–2 ([3]; All, n=55): 1 (2) no. of pts (%)
Dehydration, grade 3 ([3]; All, n=55): 2 (4) no. of pts (%)
Diarrhea: Any grade ([3]; All, n=55): 16 (29) no. of pts (%)
Diarrhea: Grade 1 ([3]; All, n=55): 14 (25) no. of pts (%)
Diarrhea: Grade 2 ([3]; All, n=55): 2 (4) no. of pts (%)
Diarrhea: Grade 3+ ([3]; All, n=55): 0 no. of pts (%)
Hyperbilirubinemia ([3]; All, n=55): 1 (2) no. of pts (%)
Pneumonitis, grade 3 ([3]; All, n=55): 1 (2) no. of pts (%)
Rash, maximum grade: Any grade ([3]; All, n=55): 38 (69) no. of pts (%)
Rash, maximum grade: Grade 1 ([3]; All, n=55): 22 (40) no. of pts (%)
Rash, maximum grade: Grade 2 ([3]; All, n=55): 12 (22) no. of pts (%)
Rash, maximum grade: Grade 3 ([3]; All, n=55): 4 (7) no. of pts (%)
Xerostomia ([3]; All, n=55): 2 (4) no. of pts (%)
Dermatologic, other than rash: Any, grade 1–3 ([3]; All, n=55): 16 (29) no. of pts (%)
Nausea, grade 1–3 ([3]; All, n=55): 8 (15) no. of pts (%)
AST elevation ([3]; Arm A (fixed dose), n=28): 4 (14) no. of pts (%)
Anorexia, grade 1–2 ([3]; Arm A (fixed dose), n=28): 5 (18) no. of pts (%)
Anorexia, grade 3 ([3]; Arm A (fixed dose), n=28): 2 (7) no. of pts (%)
Any grade 3+ toxicity ([3]; Arm A (fixed dose), n=28): 5 (18) no. of pts (%)
Any grade 4/5 toxicity ([3]; Arm A (fixed dose), n=28): 1 (4) no. of pts (%)
Dehydration, grade 1–2 ([3]; Arm A (fixed dose), n=28): 0 no. of pts (%)
Dehydration, grade 3 ([3]; Arm A (fixed dose), n=28): 1 (4) no. of pts (%)
Diarrhea: Any grade ([3]; Arm A (fixed dose), n=28): 9 (32) no. of pts (%)
Diarrhea: Grade 1 ([3]; Arm A (fixed dose), n=28): 7 (25) no. of pts (%)
Diarrhea: Grade 2 ([3]; Arm A (fixed dose), n=28): 2 (7) no. of pts (%)
Diarrhea: Grade 3+ ([3]; Arm A (fixed dose), n=28): 0 no. of pts (%)
Hyperbilirubinemia ([3]; Arm A (fixed dose), n=28): 0 no. of pts (%)
Pneumonitis, grade 3 ([3]; Arm A (fixed dose), n=28): 1 (4) no. of pts (%)
Rash, maximum grade: Any grade ([3]; Arm A (fixed dose), n=28): 19 (68) no. of pts (%)
Rash, maximum grade: Grade 1 ([3]; Arm A (fixed dose), n=28): 12 (43) no. of pts (%)
Rash, maximum grade: Grade 2 ([3]; Arm A (fixed dose), n=28): 7 (25) no. of pts (%)
Rash, maximum grade: Grade 3 ([3]; Arm A (fixed dose), n=28): 0 no. of pts (%)
Xerostomia ([3]; Arm A (fixed dose), n=28): 0 no. of pts (%)
Dermatologic, other than rash: Any, grade 1–3 ([3]; Arm A (fixed dose), n=28): 7 (25) no. of pts (%)
Nausea, grade 1–3 ([3]; Arm A (fixed dose), n=28): 2 (7) no. of pts (%)
AST elevation ([3]; Arm B (dose adjusted), n=27): 0 no. of pts (%)
Anorexia, grade 1–2 ([3]; Arm B (dose adjusted), n=27): 9 (33) no. of pts (%)
Anorexia, grade 3 ([3]; Arm B (dose adjusted), n=27): 1 (4) no. of pts (%)
Any grade 3+ toxicity ([3]; Arm B (dose adjusted), n=27): 6 (22) no. of pts (%)
Any grade 4/5 toxicity ([3]; Arm B (dose adjusted), n=27): 0 no. of pts (%)
Dehydration, grade 1–2 ([3]; Arm B (dose adjusted), n=27): 1 (4) no. of pts (%)
Dehydration, grade 3 ([3]; Arm B (dose adjusted), n=27): 1 (4) no. of pts (%)
Diarrhea: Any grade ([3]; Arm B (dose adjusted), n=27): 7 (26) no. of pts (%)
Diarrhea: Grade 1 ([3]; Arm B (dose adjusted), n=27): 7 (26) no. of pts (%)
Diarrhea: Grade 2 ([3]; Arm B (dose adjusted), n=27): 0 no. of pts (%)
Diarrhea: Grade 3+ ([3]; Arm B (dose adjusted), n=27): 0 no. of pts (%)
Hyperbilirubinemia ([3]; Arm B (dose adjusted), n=27): 1 (4) no. of pts (%)
Pneumonitis, grade 3 ([3]; Arm B (dose adjusted), n=27): 0 no. of pts (%)
Rash, maximum grade: Any grade ([3]; Arm B (dose adjusted), n=27): 19 (70) no. of pts (%)
Rash, maximum grade: Grade 1 ([3]; Arm B (dose adjusted), n=27): 10 (37) no. of pts (%)
Rash, maximum grade: Grade 2 ([3]; Arm B (dose adjusted), n=27): 5 (19) no. of pts (%)
Rash, maximum grade: Grade 3 ([3]; Arm B (dose adjusted), n=27): 4 (15) no. of pts (%)
Xerostomia ([3]; Arm B (dose adjusted), n=27): 2 (7) no. of pts (%)
Dermatologic, other than rash: Any, grade 1–3 ([3]; Arm B (dose adjusted), n=27): 9 (33) no. of pts (%)
Nausea, grade 1–3 ([3]; Arm B (dose adjusted), n=27): 6 (22) no. of pts (%)
patients who experienced rash during the first cycle ([3]; Arm B, of the 27 enrolled patients): 18 patients
diarrhea, % of patients ([3]; all 55 treated patients): 29%
dose reductions for toxicity ([3]; all 55 treated patients): no dose reductions for toxicity
nausea, % of patients ([3]; all 55 treated patients): 15%
patients who experienced any grade 3 toxicity ([3]; all 55 treated patients (11 patients)): 20%
PD (NSCLC; All, n=52 evaluable patients): 40 (78) Number of patients (%)
PR (NSCLC; All, n=52 evaluable patients): 1 (2) Number of patients (%)
1 year progression free rate (NSCLC; All, n=55 treated patients): 7%
1 year survival rate (NSCLC; All, n=55 treated patients): 28%
Survival, Median (NSCLC; All, n=55 treated patients): 5.3 months
Survival, Range (NSCLC; All, n=55 treated patients): 0.9–42.8 months
TTP, Median (95% CI) (NSCLC; All, n=55 treated patients): 2.6 (1.9– 2.8) months
TTP, Range (NSCLC; All, n=55 treated patients): 0.3–20.2 months
DCR at 3 months (NSCLC; Arm A, n=26 evaluable patients): 6 (23) Number of patients (%)
PD (NSCLC; Arm A, n=26 evaluable patients): 20 (77) Number of patients (%)
PR (NSCLC; Arm A, n=26 evaluable patients): 1 (4) Number of patients (%)
1 year progression free rate (NSCLC; Arm A, n=28): 10%
1 year survival rate (NSCLC; Arm A, n=28): 30%
Survival, Median (NSCLC; Arm A, n=28): 5.3 months
Survival, Range (NSCLC; Arm A, n=28): 0.9–37.4 months
TTP, Median (95% CI) (NSCLC; Arm A, n=28): 2.8 (2.5–3.1) months
TTP, Range (NSCLC; Arm A, n=28): 0.6–14.4 months
DCR at 3 months (NSCLC; Arm B, n=26 evaluable patients): 6 (23) Number of patients (%)
PD (NSCLC; Arm B, n=26 evaluable patients): 20 (77) Number of patients (%)
PR (NSCLC; Arm B, n=26 evaluable patients): 0 Number of patients (%)
1 year progression free rate (NSCLC; Arm B, n=27): 4%
1 year survival rate (NSCLC; Arm B, n=27): 26%
Survival, Median (NSCLC; Arm B, n=27): 5.2 months
Survival, Range (NSCLC; Arm B, n=27): 1.3–42.8 months
TTP, Median (95% CI) (NSCLC; Arm B, n=27): 2.4 (1.5–2.7) months
TTP, Range (NSCLC; Arm B, n=27): 0.3–20.2 months
θFM (fraction of erlotinib converted to OSI-420, FMET=1/1+exp(FM)) [1, 5]: 1.22 (0.47, 3.33)
IIV V1, inter-individual variability on volume of distribution [1, 5]: 0.90 (0.40, 1.33)
IIVCL, inter-individual variability on clearance [1, 5]: 0.24 (0.005, 0.44)
IOV CL, inter-occasion variability on clearance [1, 5]: 0.58 (0.29, 0.89)
θFM (fraction of erlotinib converted to OSI-420, FMET=1/1+exp(FM)) [1, 6]: 1.41 (12.8)
IIV V1, inter-individual variability on volume of distribution [1, 6]: 0.92 (50.5)
IIVCL, inter-individual variability on clearance [1, 6]: 0.06 (80.8)
IOV CL, inter-occasion variability on clearance [1, 6]: 0.38 (55.5)
θKa, first-order absorption rate constant ([1]; Base model (n=26)): 1.04 h⁻¹
θFM (fraction of erlotinib converted to OSI-420, FMET=1/1+exp(FM)) [1, 7]: 1.03 (0.23, 3.49)
θLBM, lean body mass covariate term [1, 7]: 1.75 (0.69, 3.08)
IIV V1, inter-individual variability on volume of distribution [1, 7]: 0.92 (0.43, 1.37)
IIVCL, inter-individual variability on clearance [1, 7]: 0.13 and 0.13 (0.001, 0.35)
IOV CL, inter-occasion variability on clearance [1, 7]: 0.51 (0.15, 0.85)
θFM (fraction of erlotinib converted to OSI-420, FMET=1/1+exp(FM)) [1, 8]: 0.88 (26.4)
θLBM, lean body mass covariate term [1, 8]: 1.71 (27.8)
IIV V1, inter-individual variability on volume of distribution [1, 8]: 0.95 (50.7)
IIVCL, inter-individual variability on clearance [1, 8]: 0.02 (127.1)
IOV CL, inter-occasion variability on clearance [1, 8]: 0.30 (67.9)
θKa, first-order absorption rate constant ([1]; Covariate model (LBM, n=26)): 1.04 h⁻¹
clearance ([1]; both, θCL, erlotinib clearance, Base model (n=26), Bootstrap median (95% CI)): 104 mL/min
clearance ([1]; both, θCL, erlotinib clearance, Base model (n=26), Estimate (CV %)): 104 mL/min
clearance ([1]; both, θCL, erlotinib clearance, Covariate model (LBM, n=26), Bootstrap median (95% CI)): 106 mL/min
clearance ([1]; both, θCL, erlotinib clearance, Covariate model (LBM, n=26), Estimate (CV %)): 107 mL/min
Vd ([1]; both, Base model (n=26), Bootstrap median (95% CI)): 275 L
Vd ([1]; both, Base model (n=26), Estimate (CV %)): 284 L
Vd ([1]; both, Covariate model (LBM, n=26), Estimate (CV %)): 283 L
clearance ([1]; estimated erlotinib clearance from nonlinear mixed-effects modeling, this study): 104 mL/min
AUC0–24 ([2]; human): 17400 ± 8900 ng·h/mL
Tmax ([2]; human): 2.5 (0–10) hrs
range of population estimates for CL/F [4]: 3.29 to 5.82 L/h
dose reductions due to adverse events (NSCLC patients; 81 Caucasian NSCLC patients): 14%
dose reductions due to adverse events (NSCLC patients; 1242 Asian NSCLC patients): 23%
AUC(0-t) (clinical; AUC0–24): 12200 ± 6200 ng·h/mL
Tmax (clinical; Tmax): 5 h
